Here are results for two molecules from ChEMBL document CHEMBL6078645, “Expanding the Solvent/Protein Region Occupation of the Non-Nucleoside Reverse Transcriptase Inhibitor Binding Pocket for Improved Broad-Spectrum Anti-HIV-1 Efficacy: from Rigid Phenyl-Diarylpyrimidines to Flexible Hydrophilic Piperidine-Diarylpyrimidines” (J Med Chem, 2024).

Where “and” joins values, the source holds several entries; their conditions need not be identical. Equal values may be shown once.

Data set [1] deals with T1, CYP3A4 (Homo sapiens, UniProt P08684). The experiment in a line: Inhibition of CYP3A4 in human liver microsome using midazolam as substrate preincubated with compound for 10 minutes followed NADPH addition and measured after 15 mins by LC-MS/MS analysis. The format is ADME, microsomes. The note with it: human, human liver microsomes, probe midazolam.
Data set [2] has as its system Human immunodeficiency virus 1. The experiment in a line: Antiviral activity against HIV-1 harboring L100I mutant infected in human MT4 cells assessed as protection against virus-induced cytopathic effect incubated for 5 days by MTT assay. The class given is functional, organism-based. The note with it: Human immunodeficiency virus 1, MT4, 120 h.
Data set [3] has as its system Human immunodeficiency virus 1. The experiment in a line: Antiviral activity against HIV-1 harboring F227L/V106A double mutant infected in human MT4 cells assessed as protection against virus-induced cytopathic effect incubated for 5 days by MTT assay. The class given is functional, organism-based.
The target of data set [4] is T2, Human immunodeficiency virus type 1 reverse transcriptase (Human immunodeficiency virus 1, UniProt Q72547). The data set can be described thus: Inhibition of HIV-1 reverse transcriptase.
Data set [5] deals with Cytochrome P450 2C19 (Homo sapiens, UniProt P33261). The data set can be described thus: Inhibition of CYP2C19 in human liver microsome preincubated with compound for 10 minutes followed NADPH addition and measured after 15 mins by LC-MS/MS analysis. The format is ADME, microsomes.
Data set [6] in a line: (§1) Cytotoxicity against human MT4 cells assessed as reduction in cell viability incubated for 5 days by MTT assay. The format is toxicity, cell-based. The note with it: MT4 cells, time 5 day.
Data set [7] addresses T1, CYP3A4. The data set can be described thus: Inhibition of CYP3A4 in human liver microsome using testosterone as substrate preincubated with compound for 10 minutes followed NADPH addition and measured after 15 mins by LC-MS/MS analysis. The class given is ADME, microsomes. To be noted: human, human liver microsomes, probe testosterone.
Data set [8] has as its system Human immunodeficiency virus 1. The experiment in a line: Antiviral activity against HIV-1 harboring Y181C mutant infected in human MT4 cells assessed as protection against virus-induced cytopathic effect incubated for 5 days by MTT assay. The format is functional, organism-based. To be noted: Human immunodeficiency virus 1, MT4, 120 h.
Data set [9] has as its system Human immunodeficiency virus 1. The data set can be described thus: Antiviral activity against HIV-1 harboring E138K mutant infected in human MT4 cells assessed as protection against virus-induced cytopathic effect incubated for 5 days by MTT assay. The format is functional, organism-based. The note with it: Human immunodeficiency virus 1, MT4, 120 h.
For data set [10], the target named is T3, CYP1A2 (Homo sapiens, UniProt P05177).
T3 sequence (P05177 whole entry): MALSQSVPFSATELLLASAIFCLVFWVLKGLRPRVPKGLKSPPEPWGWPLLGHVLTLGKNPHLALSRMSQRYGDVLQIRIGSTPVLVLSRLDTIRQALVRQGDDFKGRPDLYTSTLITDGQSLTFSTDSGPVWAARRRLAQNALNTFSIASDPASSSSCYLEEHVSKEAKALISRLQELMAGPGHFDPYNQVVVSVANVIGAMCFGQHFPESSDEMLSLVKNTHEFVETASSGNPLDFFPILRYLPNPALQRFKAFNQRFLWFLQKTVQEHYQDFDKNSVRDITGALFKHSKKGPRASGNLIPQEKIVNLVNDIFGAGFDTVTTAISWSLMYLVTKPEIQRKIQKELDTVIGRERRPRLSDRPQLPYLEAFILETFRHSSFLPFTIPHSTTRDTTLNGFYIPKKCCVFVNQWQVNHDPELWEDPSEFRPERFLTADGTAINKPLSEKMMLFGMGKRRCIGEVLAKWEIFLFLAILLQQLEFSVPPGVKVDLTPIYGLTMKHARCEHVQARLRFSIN
The experiment in a line: Inhibition of CYP1A2 in human liver microsome preincubated with compound for 10 minutes followed NADPH addition and measured after 15 mins by LC-MS/MS analysis. The format is ADME, microsomes. The note with it: human, human liver microsomes.

Data set [11] in a line: Selectivity index, ratio of CC50 for cytotoxicity against human MT4 cells assessed as reduction in cell viability to EC50 for antiviral activity against wild type HIV-1 IIIB infected in human MT4 cells assessed as protection against virus-induced cytopathic effect. To be noted: MT4 cells, read-out: Ratio CC50/EC50. The format is toxicity, cell-based.
In data set [12] the test system is Human immunodeficiency virus 1. The experiment in a line: Antiviral activity against HIV-1 harboring RES056 mutant infected in human MT4 cells assessed as protection against virus-induced cytopathic effect incubated for 5 days by MTT assay. The class given is functional, organism-based.
Data set [13] deals with CYP2D6 (Homo sapiens, UniProt P10635). The experiment in a line: Inhibition of CYP2D6 in human liver microsome preincubated with compound for 10 minutes followed NADPH addition and measured after 15 mins by LC-MS/MS analysis. The format is ADME, microsomes. To be noted: human, human liver microsomes.
Data set [14] deals with Human immunodeficiency virus 1. The experiment in a line: Antiviral activity against HIV-1 harboring Y188L mutant infected in human MT4 cells assessed as protection against virus-induced cytopathic effect incubated for 5 days by MTT assay. The class given is functional, organism-based.
In data set [15] the target is CYP2C9 (Homo sapiens, UniProt P11712). The experiment in a line: Inhibition of CYP2C9 in human liver microsome preincubated with compound for 10 minutes followed NADPH addition and measured after 15 mins by LC-MS/MS analysis. To be noted: human, human liver microsomes. The format is ADME, microsomes.
Data set [16] concerns Human immunodeficiency virus 1. The data set can be described thus: Antiviral activity against HIV-1 harboring K103N mutant infected in human MT4 cells assessed as protection against virus-induced cytopathic effect incubated for 5 days by MTT assay. The format is functional, organism-based. The note with it: Human immunodeficiency virus 1, MT4, 120 h.
Data set [17] concerns MT4. The data set is described as §1. To be noted: mt4, 120 h, 120 h, time 5 day. The class given is toxicity, cell-based.
Data set [18] concerns the target T2, Human immunodeficiency virus type 1 reverse transcriptase. The data set can be described thus: Inhibition of wildtype recombinant HIV-1 Reverse transcriptase incubated for 40 mins by spectrofluorometric analysis.
Where [19] appears, read: Human immunodeficiency virus 1, MT4, 120 h.

T1 sequence (P08684 whole entry): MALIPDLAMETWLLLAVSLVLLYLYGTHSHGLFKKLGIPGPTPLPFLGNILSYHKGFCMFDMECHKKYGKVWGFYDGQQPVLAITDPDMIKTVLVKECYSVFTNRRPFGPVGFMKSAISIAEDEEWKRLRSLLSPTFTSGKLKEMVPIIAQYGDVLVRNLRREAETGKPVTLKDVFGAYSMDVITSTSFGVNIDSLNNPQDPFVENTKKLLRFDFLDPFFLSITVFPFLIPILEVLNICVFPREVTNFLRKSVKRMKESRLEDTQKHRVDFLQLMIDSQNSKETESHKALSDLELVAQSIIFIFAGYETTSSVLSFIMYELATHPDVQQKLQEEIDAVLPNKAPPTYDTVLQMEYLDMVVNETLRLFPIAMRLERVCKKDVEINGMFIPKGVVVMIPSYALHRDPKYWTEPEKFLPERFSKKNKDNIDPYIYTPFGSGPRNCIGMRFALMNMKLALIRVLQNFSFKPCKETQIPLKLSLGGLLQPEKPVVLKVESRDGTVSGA
Sequence of Cytochrome P450 2C19 (P33261 whole entry): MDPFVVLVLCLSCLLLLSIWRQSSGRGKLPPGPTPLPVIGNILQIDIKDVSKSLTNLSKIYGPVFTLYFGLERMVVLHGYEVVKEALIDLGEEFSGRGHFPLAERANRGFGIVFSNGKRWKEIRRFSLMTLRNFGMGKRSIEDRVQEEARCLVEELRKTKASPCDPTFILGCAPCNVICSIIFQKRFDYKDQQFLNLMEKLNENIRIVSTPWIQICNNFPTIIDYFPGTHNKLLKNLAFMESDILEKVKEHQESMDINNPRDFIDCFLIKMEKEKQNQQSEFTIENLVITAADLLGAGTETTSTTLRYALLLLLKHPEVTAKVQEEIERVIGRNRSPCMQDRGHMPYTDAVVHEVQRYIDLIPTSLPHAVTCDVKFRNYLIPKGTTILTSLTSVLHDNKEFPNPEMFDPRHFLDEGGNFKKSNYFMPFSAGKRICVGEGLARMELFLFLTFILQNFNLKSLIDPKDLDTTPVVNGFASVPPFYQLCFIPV
Sequence of CYP2C9 (P11712 whole entry): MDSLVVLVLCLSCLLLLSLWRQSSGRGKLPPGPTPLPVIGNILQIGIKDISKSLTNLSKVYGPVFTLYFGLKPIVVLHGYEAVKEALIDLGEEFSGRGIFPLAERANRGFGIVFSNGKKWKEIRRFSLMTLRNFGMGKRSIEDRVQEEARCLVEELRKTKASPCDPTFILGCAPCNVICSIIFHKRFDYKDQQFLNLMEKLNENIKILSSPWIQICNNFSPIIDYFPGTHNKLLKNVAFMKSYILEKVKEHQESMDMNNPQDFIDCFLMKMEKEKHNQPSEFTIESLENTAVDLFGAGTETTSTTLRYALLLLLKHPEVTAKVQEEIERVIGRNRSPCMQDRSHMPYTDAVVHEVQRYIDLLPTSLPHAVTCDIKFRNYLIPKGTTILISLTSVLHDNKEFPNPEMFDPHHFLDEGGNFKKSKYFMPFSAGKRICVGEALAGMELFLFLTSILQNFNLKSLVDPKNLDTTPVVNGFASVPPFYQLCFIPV
Sequence of CYP2D6 (P10635 whole entry): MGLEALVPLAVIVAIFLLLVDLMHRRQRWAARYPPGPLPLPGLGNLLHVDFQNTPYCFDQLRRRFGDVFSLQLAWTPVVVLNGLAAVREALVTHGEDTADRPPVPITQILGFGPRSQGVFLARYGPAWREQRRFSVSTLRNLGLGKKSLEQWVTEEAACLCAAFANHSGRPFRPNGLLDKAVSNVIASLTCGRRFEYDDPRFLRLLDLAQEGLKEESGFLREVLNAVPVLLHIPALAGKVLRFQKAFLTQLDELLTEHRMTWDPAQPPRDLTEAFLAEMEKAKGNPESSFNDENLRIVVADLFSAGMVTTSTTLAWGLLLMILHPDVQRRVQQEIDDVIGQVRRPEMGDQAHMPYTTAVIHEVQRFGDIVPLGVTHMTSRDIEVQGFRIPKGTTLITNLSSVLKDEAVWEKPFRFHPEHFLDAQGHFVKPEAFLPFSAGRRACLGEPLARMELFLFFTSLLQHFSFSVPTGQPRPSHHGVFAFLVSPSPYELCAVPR

Take `N#Cc1ccc(Nc2ncc(CO)c(Oc3c(F)cc(-c4ccc(C#N)cc4)cc3F)n2)cc1`: the IC50 at 15 min in data set [1], in data set [7], in data set [10], in data set [13] and in data set [15] was more than 25000 nM throughout. The EC50 in [2] came out at 8 nM; in data set [3] (setting [19]), 1100 nM; in data set [4] it was 1 nM; in data set [8], 15 nM; in data set [9], 4 nM; in data set [12] (setting [19]), 969 nM. In addition, the EC50 was determined as 161 nM in data set [14] (setting [19]) and 2 nM in data set [16]. Further, in data set [5], the IC50 worked out at 14000 nM. In addition, the half-maximal cytotoxic concentration (CC50) at 120 h in [6] turned out to be 226000 nM. Besides, the selectivity ratio in data set [11] is 256000.

Regarding `Cc1cc(-c2ccc(C#N)cc2)cc(C)c1Oc1nc(NC2CCN(Cc3ccc(S(=O)(=O)N4CCC(O)CC4)cc3)CC2)ncc1CO`, the 50% effective concentration (EC50) is 22 nM in data set [2]; 54 nM in data set [3] (setting [19]); 51 nM in [3] (mt4); 8 nM and 9 nM in data set [4]; 39 nM in data set [8]; 38 nM in data set [9]. Also, the EC50 in data set [12] (setting [19]) is 169 nM; in data set [12] (mt4), 307 nM; in [14] (mt4), 125 nM and 56 nM; in data set [16] it was 9 nM. Moreover, in [17], the CC50 is 3250 nM and 18400 nM. For the same molecule, the half-maximal inhibitory concentration (IC50) in data set [18] came out at 595 nM.
